{"source": "patent US20180000768A1", "about": "“INTESTINAL FXR AGONISM ENHANCES GLP-1 SIGNALING TO RESTORE PANCREATIC BETA CELL FUNCTIONS” (Salk Institute for Biological Studies, priority 2015, published 2018)", "key": {"[1]": {"tested_on": "NCI-H716 cells", "experiment": "Extracellular oxygen consumption rate assay (Seahorse XF96)", "assay_type": "cell-based, human", "procedure": "Briefly, NCI-H716 cells were seeded in XF 96-well cell culture microplates (Seahorse Bioscience) at 6.0×10^4 cells per well in 150 μl of growth medium and then incubated at 37° C./5% CO2 for 24 hr. A Seahorse Bioscience instrument model XF96 was used to measure the rate of change of dissolved oxygen in the media surrounding the cells. All procedures followed manufacturer's instructions. […] Conversely, treatment with the FXR antagonist guggulsterone reduced basal respiratory rates and the FCCP-induced maximum respiration rate (FIGS. 9A and 9B). To examine the effects of FXR activity on the secretion of GLP-1, the metabolic changes induced in human L cells was measured after treatment with the FXR agonist, fexaramine and an FXR antagonist, guggulsterone. Treatment of L cells with fexaramine (1 μM for 24 hours) lead to an increase in the oxygen consumption rate (OCR), consistent with increased mitochondrial activity and consequently, an increased energetic state (FIG. 9A). The reverse effect was seen after treatment with the FXR antagonist, guggulsterone, with lower OCR after drug treatment."}, "[2]": {"tested_on": "enteroendocrinal L cells", "experiment": "Gene expression analysis (QPCR) in enteroendocrinal L cells", "assay_type": "cell-based, human"}, "[3]": {"tested_on": "ob/ob mice", "experiment": "in vivo GLP-1 secretion after glucose load", "set-up": "species or system mouse", "details": "Fex-treated ob/ob mice, sitagliptin (25 mg/kg) prior to glucose challenge", "procedure": "In vitro GLP-1 secretion assay was performed in human enteroendocrinal L cells (NCI-H716). For each secretion assay, cells were seeded at 1×10^5 cells/ml (1 ml/well) in a matrigel-coated 24-well plate. Prior to GLP-1 secretion assay, cells were pre-treated with DMSO, 1 μM Fex, or 1 μM Fex-D overnight. Cells were deprived in Krebs buffer (with 0.1% BSA) with dipeptidyl peptidase (DPP)-4 inhibitor ([…] sitagliptin). GLP-1 was measured with a commercial kit (EZGLP1T-36K, Millipore). For in vivo GLP-1 secretion, each animal was gavaged with 25 mg per kg of body weight sitagliptin 60-minutes before glucose load. Blood was collected from the tail vein at the indicated intervals, and transferred to serum collection tubes containing sitagliptin.\nTo investigate whether Fex enhances GLP-1 secretion in vivo, mice were challenged with a DPP4 inhibitor, sitagliptin (25 mg/kg) prior to a glucose challenge."}, "[4]": {"tested_on": "ob/ob mice", "experiment": "in vivo glucose-stimulated insulin secretion (GSIS)", "set-up": "species or system mouse", "details": "Fex 100 mg/kg daily P.O., 5 weeks", "procedure": "Insulin resistance can be associated with reduced […] insulin secretion in response to glucose, while GLP-1 augments glucose-stimulated insulin secretion (GSIS). To examine whether Fex treatment improves GSIS, serum insulin levels were determined after a glucose challenge in ob/ob mice."}, "[5]": {"tested_on": "pancreatic islets from ob/ob mice", "experiment": "Insulin secretion assay on isolated pancreatic islets (ex vivo)", "assay_type": "cell-based, mouse", "details": "islets from Fex-treated mice", "procedure": "Mouse pancreatic islets were isolated from ob/ob mice according to a method used for rats traditionally. Briefly, 0.5 mg/ml collagenase P (Roche) diluted in HBSS buffer was injected through the common bile duct and the perfused pancreas was dissected and incubated in water bath with 37° C. for 21 minutes. Digested exocrine cells and intact islets were separated using Histopaque-1077 (SIGMA) with centrifugation by 900 g for 15 minutes and intact islets were picked up manually.\nInsulin release from intact islets was monitored using batch incubation methods.\nIsolated pancreatic islets were cultured over-night with […] supplemented with 10% (v/v) fetal bovine serum and 1% (v/v) Antibiotics-antimycotic solution, were pre-cultured at 37° C. for 30 minutes in Krebs Ringer bicarbonate buffer (KRBH) containing 129.4 mM NaCl, 3.7 mM KCl, 2.7 mM CaCl2, 1.3 mM KH2PO4, 1.3 mM MgSO4, 24.8 mM NaHCO3 (equilibrated with 5% CO2, 95% O2, pH7.4), 10 mM HEPES and 0.2% (v/v) BSA (fraction V) with 3 mM glucose. N ext, the pancreatic islets were incubated for 30 minutes KRBH buffer (500 μl/10 islets) with 3 mM or 20 mM glucose with or without 100 nM Exendin-4 to determine insulin secretion levels. At the end of the incubation period, islets were pelleted by centrifugation, and aliquots of the buffer were sampled. The amounts of insulin were determined by Rat/mouse Insulin ELISA KIT (Millipore) for mice islets."}, "[6]": {"tested_on": "ob/ob mice", "experiment": "gene expression (RNA-Seq, QPCR) in tissues of treated ob/ob mice", "assay_type": "in vivo, mouse", "procedure": "Total RNA was isolated from cell pellets treated with RNAlater using the RNA mini kit (Qiagen) and treated with DNaseI (Qiagen) for 30 minutes at room temperature. Sequencing libraries were prepared from 100-500 ng total RNA using the TruSeq RNA Sample Preparation Kit v2 (Illumina) according to the manufacturer's protocol. Briefly, mRNA was purified, fragmented, and used for first-, then second-strand cDNA synthesis followed by adenylation of 3′ ends. Samples were ligated to unique adapters and subjected to PCR amplification. Mulitplexed libraries were then validated using the 2100 BioAnalyzer (Agilent), normalized, and pooled for sequencing. RNA-Seq libraries prepared from two biological replicates for each experimental condition were sequenced on the Illumina HiSeq 2500 using bar-coded multiplexing and a 100 bp read length.\nImage analysis and base calling were performed with Illumina CASAVA-1.8.2. This yielded a median of 29.9M usable reads per sample. Short read sequences were mapped to a UCSC mm9 reference sequence using the RNA-seq aligner STAR. Known splice junctions from mm9 were supplied to the aligner and de novo junction discovery was also permitted. Differential gene expression analysis, statistical testing and annotation were performed using Cuffdiff 2. Transcript expression was calculated as gene-level relative abundance in fragments per kilobase of exon model per million mapped fragments and employed correction for transcript abundance bias. RNA-Seq results for genes of interest were also explored visually using the UCSC Genome Browser."}, "[7]": {"experiment": "in vitro permeability in Caco2 cells", "details": "human; for Papp A→B at 2 h, 10 μM: Caco2 cells, assay conc. 10 μM"}, "[8]": {"tested_on": "human intestinal epithelial Caco2 cells", "experiment": "in vitro permeability in Caco2 cells", "details": "Caco2 cells, 2 hour incubation"}}, "note": "Entries after “also recorded” stand apart in the source; their conditions may differ.", "data": [{"smiles": "COC(=O)/C=C/c1cccc(N(Cc2ccc(-c3ccc(N(C)C)cc3)cc2)C(=O)C2CCCCC2)c1", "note": "[Fexaramine]", "values": [{"measurement": "maximum respiration rate induced by FCCP", "setting": "[1]; L cells, Fex 1 μM for 24 hr, vehicle-treated L cells 130%", "value": 155, "unit": "%"}, {"measurement": "oxygen consumption rate (OCR)", "setting": "[1]; human L cells, 24 hours, fexaramine 1 μM, guggulsterone 10 μM", "value": "increase"}, {"measurement": "DPP4 expression", "setting": "[2]", "value": "no effect"}, {"measurement": "proglucagon expression", "setting": "[2]", "value": "no effect"}, {"measurement": "SHP expression (FXR target gene)", "setting": "[2]; listed as Fex", "value": "induced; also recorded: induction"}, {"measurement": "glucose tolerance after DPP4 inhibitor pre-treatment", "setting": "[3]", "value": "improved"}, {"measurement": "plasma GLP-1 level 20 minutes after the glucose challenge", "setting": "[3]", "value": "increase"}, {"measurement": "serum insulin after a glucose challenge", "setting": "[4]", "value": "significant increase"}, {"measurement": "ex vivo insulin secretion in response to 20 mM glucose", "setting": "[5]", "value": "dramatically increased"}, {"measurement": "insulin content in ex vivo islets", "setting": "[5]", "value": "significantly higher"}, {"measurement": "FXR target genes SHP and FGF15 in the intestine", "setting": "[6]; Fex 100 mg/kg daily P.O., 5 weeks, ileum", "value": "markedly upregulated"}, {"measurement": "expression of the GLP-1 receptor in islets", "setting": "[6]; Fex 100 mg/kg for 5 weeks, listed as Fex", "value": "increased expression; also recorded: significantly increased"}, {"measurement": "Papp B→A at 2 h, 10 μM", "setting": "[7]; Caco-2", "value": 0.77, "unit": "×10⁻⁶ cm/s"}, {"measurement": "recovery at 2 h, 10 μM", "setting": "[7]; Caco-2", "value": 150, "unit": "%"}, {"measurement": "Papp A→B at 2 h, 10 μM", "setting": "[7]; Caco-2, A-B Permeability Ranking", "value": "< 1", "unit": "×10⁻⁶ cm/s"}, {"measurement": "Papp A→B at 2 h, 10 μM", "setting": "[7]; Caco-2, Mean Papp, A-B, 2 hour incubation", "value": 0.597, "unit": "×10⁻⁶ cm/s"}, {"measurement": "in vitro permeability", "setting": "[8]", "value": "low"}]}]}
